Measured values published in the supplement of paper PMC11061612.

Tests used:
Assay in all cases: combination Emax (second highest fraction inhibited in the dose matrix, 72 h); higher = more inhibition; extreme values may be limits of the assay
[1] = test system: FADU (Head and Neck Carcinoma)
How it was run: (§1)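 After 24 hours at 37°C and 5% CO2 in 1536-well plates, cells in DMEM/F12 or RPMI plus 10% FBS received two-drug dose matrices for 72 hours. Viability came from CellTiter-Glo 2.0 luminescence and was scaled as inhibition, anchored at 0 by vehicle wells and at 1 by blank wells. Combination Emax is taken as the second-highest inhibition in the matrix, and Bliss excess as the observed combination effect less EA + EB − EA·EB, with EA and EB the single-agent effects.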

SF539 (Glioblastoma) = test system: SF539 (Glioblastoma)
How it was run: as §1

[2] = test system: PANC-03-27 (Pancreatic Carcinoma)
How it was run: as §1

[3] = test system: KE-37 (T-Lymphoblastic Leukemia)
How it was run: as §1

[4] = test system: REH (B-Lymphoblastic Leukemia)
How it was run: as §1

[5] = test system: MFE-280 (Endometrial Carcinoma)
How it was run: as §1

[6] = test system: L-1236 (Hodgkin's Lymphoma)
How it was run: as §1

[7] = test system: RCM-1 (Colorectal Carcinoma)
How it was run: as §1

LN-229 (Glioblastoma) = test system: LN-229 (Glioblastoma)
How it was run: as §1

[8] = test system: SU-DHL-10 (B-Cell Non-Hodgkin's Lymphoma)
How it was run: as §1

[9] = test system: CAL-62 (Thyroid Gland Carcinoma)
How it was run: as §1

[10] = test system: NCI-H2342 (Lung Adenocarcinoma)
How it was run: as §1

[11] = test system: PC-3_[JPC-3] (Lung Adenocarcinoma)
How it was run: as §1

[12] = test system: HEC-1 (Endometrial Carcinoma)
How it was run: as §1

SF268 (Low Grade Glioma) = test system: SF268 (Low Grade Glioma)
How it was run: as §1

[13] = test system: OPM-2 (Plasma Cell Myeloma)
How it was run: as §1

[14] = test system: TE-8 (Esophageal Squamous Cell Carcinoma)
How it was run: as §1

[15] = test system: NCI-H446 (Small Cell Lung Carcinoma)
How it was run: as §1

[16] = test system: VAL (B-Cell Non-Hodgkin's Lymphoma)
How it was run: as §1

| SMILES | combination Emax [1] | combination Emax (SF539 (Glioblastoma)) | combination Emax [2] | combination Emax [3] | combination Emax [4] | combination Emax [5] | combination Emax [6] | combination Emax [7] | combination Emax (LN-229 (Glioblastoma)) | combination Emax [8] | combination Emax [9] | combination Emax [10] | combination Emax [11] | combination Emax [12] | combination Emax (SF268 (Low Grade Glioma)) | combination Emax [13] | combination Emax [14] | combination Emax [15] | combination Emax [16] |
| --- | --- | --- | --- | --- | --- | --- | --- | --- | --- | --- | --- | --- | --- | --- | --- | --- | --- | --- | --- |
| CCN(CCO)CCCOc1ccc2c(Nc3cc(CC(=O)Nc4cccc(F)c4)[nH]n3)ncnc2c1 [AZD2811] + C[C@@H]1COCCN1C2=NC(=NC(=C2)C3(CC3)[S@](=N)(=O)C)C4=C5C=CNC5=NC=C4 [AZD6738] (first compound max 1 µM, 7x7, partner max 10 µM) | 0.654 | 0.955 | 0.837 | 1 | 0.787 | 0.436 | 0.595 | 0.828 | 0.562 | 0.985 | 0.741 | 0.213 | 0.304 | 0.212 | 0.381 | 0.71 | 0.781 | 0.869 | 0.877 |
| CCN(CCO)CCCOc1ccc2c(Nc3cc(CC(=O)Nc4cccc(F)c4)[nH]n3)ncnc2c1 [AZD2811] + O=C(c1cc(Cc2n[nH]c(=O)c3ccccc23)ccc1F)N1CCN(C(=O)C2CC2)CC1 [Olaparib] (first compound max 1 µM, 7x7, partner max 10 µM) | 0.299 | 0.502 | 0.379 | 0.998 | 0.487 | 0.339 | 0.158 | 0.247 | 0.167 | 0.745 | 0.277 | 0.166 | 0.205 | 0.0832 | 0.178 | 0.363 | 0.335 | 0.81 | 0.831 |
| C[C@@H]1COCCN1c1cc(C2([S@](C)(=N)=O)CC2)nc(-c2ccnc3[nH]ccc23)n1 [AZD6738] + O=C(c1cc(Cc2n[nH]c(=O)c3ccccc23)ccc1F)N1CCN(C(=O)C2CC2)CC1 [Olaparib] (first compound max 10 µM, 7x7, partner max 10 µM) | 0.775 | 0.935 | 0.829 | 1 | 0.917 | 0.403 | 0.583 | 0.623 | 0.539 | 0.944 | 0.899 | 0.208 | 0.359 | 0.143 | 0.407 | 0.75 | 0.757 | 0.811 | 0.909 |
| Cc1cc2ncnn2cc1Nc1ncc2c(n1)n(C1CCOCC1)c(=O)n2C [AZD7648] + C=CCn1c(=O)c2cnc(Nc3ccc(N4CCN(C)CC4)cc3)nc2n1-c1cccc(C(C)(C)O)n1 [AZD1775] (first compound max 10 µM, partner max 1 µM) | 0.546 | 0.998 | 0.878 | 1 | 0.848 | 0.355 | 0.767 | 0.596 | 0.35 | 0.978 | 0.69 | 0.255 | 0.483 | 0.137 | 0.344 | 0.864 | 0.814 | 0.839 | 0.864 |
| Cc1cc2ncnn2cc1Nc1ncc2c(n1)n(C1CCOCC1)c(=O)n2C [AZD7648] + CCN(CCO)CCCOc1ccc2c(Nc3cc(CC(=O)Nc4cccc(F)c4)[nH]n3)ncnc2c1 [AZD2811] (first compound max 10 µM, 7x7, partner max 1 µM) | 0.263 | 0.462 | 0.334 | 1 | 0.51 | 0.377 | 0.384 | 0.316 | 0.199 | 0.899 | 0.368 | 0.324 | 0.319 | 0 | 0.19 | 0.605 | 0.354 | 0.834 | 0.798 |
| Cc1cc2ncnn2cc1Nc1ncc2c(n1)n(C1CCOCC1)c(=O)n2C [AZD7648] + CN(C)CCCOc1ccc(-c2ccc3ncc4c(c3c2)n(C2CCOCC2)c(=O)n4C)cn1 [AZD0156] (first compound max 10 µM, 7x7, partner max 1 µM) | 0.111 | 0.352 | 0.318 | 0.659 | 0.258 | 0.359 | 0.306 | 0.201 | 0.146 | 0.302 | 0.321 | 0.249 | 0.31 | 0.002 | 0.187 | 0.556 | 0.325 | 0.309 | 0.53 |
| Cc1cc2ncnn2cc1Nc1ncc2c(n1)n(C1CCOCC1)c(=O)n2C [AZD7648] + C[C@@H]1COCCN1C2=NC(=NC(=C2)C3(CC3)[S@](=N)(=O)C)C4=C5C=CNC5=NC=C4 [AZD6738] (first compound max 10 µM, 7x7, partner max 10 µM) | 0.695 | 0.85 | 0.824 | 1 | 0.771 | 0.337 | 0.689 | 0.855 | 0.525 | 0.878 | 0.724 | 0.24 | 0.426 | 0.423 | 0.303 | 0.822 | 0.75 | 0.786 | 0.918 |
| Cc1cc2ncnn2cc1Nc1ncc2c(n1)n(C1CCOCC1)c(=O)n2C [AZD7648] + O=C(c1cc(Cc2n[nH]c(=O)c3ccccc23)ccc1F)N1CCN(C(=O)C2CC2)CC1 [Olaparib] (first compound max 10 µM, 7x7, partner max 10 µM) | 0.237 | 0.406 | 0.185 | 0.585 | 0.187 | 0.434 | 0.238 | 0.125 | 0.0989 | 0.16 | 0.377 | 0.12 | 0.19 | 0.114 | 0.117 | 0.294 | 0.184 | 0.273 | 0.601 |
| COc1cccc2c1C(=O)c1c(O)c3c(c(O)c1C2=O)C[C@@](O)(C(=O)CO)C[C@@H]3O[C@H]1C[C@H](N)[C@H](O)[C@H](C)O1 [Doxorubicin] + Cc1cc2ncnn2cc1Nc1ncc2c(n1)n(C1CCOCC1)c(=O)n2C [AZD7648] (first compound max 1 µM, 7x7, partner max 10 µM) | 0.928 | 0.934 | 0.686 | 1 | 1 | 0.835 | 0.682 | 0.605 | 0.609 | 0.975 | 0.817 | 0.349 | 0.57 | 0.367 | 0.538 | 0.845 | 0.774 | 0.923 | 1 |
| COc1cccc(OCCCN)c1-c1cc(Nc2cnc(C#N)cn2)n[nH]1 [Prexasertib] + C=CCn1c(=O)c2cnc(Nc3ccc(N4CCN(C)CC4)cc3)nc2n1-c1cccc(C(C)(C)O)n1 [AZD1775] (first compound max 1 µM, partner max 1 µM) | 0.914 | 1 | 0.925 | 1 | 1 | 0.739 | 0.786 | 0.822 | 0.738 | 1 | 0.86 | 0.415 | 0.588 | 0.715 | 0.561 | 0.967 | 0.966 | 0.995 | 0.921 |
| COc1cccc(OCCCN)c1-c1cc(Nc2cnc(C#N)cn2)n[nH]1 [Prexasertib] + CN(C)CCCOc1ccc(-c2ccc3ncc4c(c3c2)n(C2CCOCC2)c(=O)n4C)cn1 [AZD0156] (first compound max 1 µM, 7x7, partner max 1 µM) | 0.808 | 0.963 | 0.902 | 1 | 0.994 | 0.441 | 0.792 | 0.818 | 0.725 | 0.999 | 0.735 | 0.345 | 0.384 | 0.655 | 0.493 | 0.936 | 0.914 | 0.982 | 0.924 |
| COc1cccc(OCCCN)c1-c1cc(Nc2cnc(C#N)cn2)n[nH]1 [Prexasertib] + C[C@@H]1COCCN1C2=NC(=NC(=C2)C3(CC3)[S@](=N)(=O)C)C4=C5C=CNC5=NC=C4 [AZD6738] (first compound max 1 µM, 7x7, partner max 10 µM) | 0.918 | 0.972 | 0.902 | 1 | 1 | 0.398 | 0.799 | 0.862 | 0.791 | 1 | 0.785 | 0.294 | 0.426 | 0.74 | 0.514 | 0.909 | 0.933 | 0.975 | 0.952 |
| COc1cccc(OCCCN)c1-c1cc(Nc2cnc(C#N)cn2)n[nH]1 [Prexasertib] + Cc1cc2ncnn2cc1Nc1ncc2c(n1)n(C1CCOCC1)c(=O)n2C [AZD7648] (first compound max 1 µM, 7x7, partner max 10 µM) | 0.851 | 0.985 | 0.898 | 1 | 0.992 | 0.405 | 0.776 | 0.796 | 0.725 | 0.999 | 0.776 | 0.309 | 0.324 | 0.53 | 0.48 | 0.912 | 0.937 | 0.97 | 0.932 |
| COc1cccc(OCCCN)c1-c1cc(Nc2cnc(C#N)cn2)n[nH]1 [Prexasertib] + O=C(c1cc(Cc2n[nH]c(=O)c3ccccc23)ccc1F)N1CCN(C(=O)C2CC2)CC1 [Olaparib] (first compound max 1 µM, 7x7, partner max 10 µM) | 0.897 | 1 | 0.918 | 1 | 0.987 | 0.416 | 0.831 | 0.596 | 0.551 | 1 | 0.779 | 0.302 | 0.31 | 0.416 | 0.623 | 0.943 | 0.902 | 0.963 | 0.93 |
